The results in this text go back to US7504508B2, “PGD2 receptor antagonists for the treatment of inflammatory diseases” (Millennium Pharmaceuticals, Inc., priority 2002, dated 2009).

As a reminder, the Ki is a measure of affinity in units of concentration, obtained from inhibition or displacement. Low readings indicate higher affinity, high ones lower affinity.

This assay concerns the target T1, cloned human CRTH2 receptor (Homo sapiens, UniProt Q9Y5Y4).
T1 construct: purchased Biosignal; host or cells: HEK-293 cells stably expressing human CRTH2 and G-alpha-16 (membranes)
T1 sequence (Q9Y5Y4 1-395): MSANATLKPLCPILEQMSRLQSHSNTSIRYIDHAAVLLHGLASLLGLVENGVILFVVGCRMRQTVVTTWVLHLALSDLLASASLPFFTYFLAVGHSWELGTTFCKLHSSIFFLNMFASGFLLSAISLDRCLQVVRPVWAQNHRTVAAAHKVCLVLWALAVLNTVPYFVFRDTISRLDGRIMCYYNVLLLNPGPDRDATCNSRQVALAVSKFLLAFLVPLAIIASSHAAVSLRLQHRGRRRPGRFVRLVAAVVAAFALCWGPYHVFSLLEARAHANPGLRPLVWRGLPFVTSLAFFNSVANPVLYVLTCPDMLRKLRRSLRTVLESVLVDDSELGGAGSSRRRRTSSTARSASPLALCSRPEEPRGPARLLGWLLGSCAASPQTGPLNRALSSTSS
Put plainly: Radioligand membrane binding assay: inhibition of [3H] PGD2 binding to CRTH2 (Scintillation Proximity Assay). Conditions: inhibition of [3H] PGD2 binding to membranes of HEK-293 cells stably expressing human CRTH2; SPA; 10 point curve from 10 μM; room temperature, approximately 2 hours. The method, boiled down: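 Scintillation proximity binding of [3H] PGD2 (at KD or lower) to membranes of HEK-293 cells stably expressing human CRTH2, in 50 mM Tris-HCl pH 7.5, 5 mM MgCl2, 1 mM EDTA. Ten-point 3-fold series from 10 μM final, ~2 h at room temperature; cold PGD2 defines NSB; percent inhibition, duplicate runs (n=2).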
Background: SPA uses beads or plates that emit light when radiolabelled molecules are held near them.
Regarding `CC(=O)N(c1ccccc1)[C@@H]1C[C@H](C)N(C(=O)c2snnc2C)c2ccccc21` (racemic) [Compound A-17, (±)-Cis-N-[2-methyl-1-(4-methyl-[1,2,3]thiadiazole-5-carbonyl)-1,2,3,4-tetrahydro-quinolin-4-yl]-N-phenyl-acetamide], the Ki is less than 10 µM.
For the molecule `COc1ccc(C(=O)N2c3cc(C)ccc3[C@@H](N(C(C)=O)c3ccc(Cl)cc3)C[C@H]2C)cc1` [Compound B-58, (2R,4S)-cis-N-(4-chloro-phenyl)-N-[1-(4-methoxy-benzoyl)-2,7-dimethyl-1,2,3,4-tetrahydro-quinolin-4-yl]-acetamide], the Ki was less than 10 µM.
Under `CCC(=O)N(c1ccccc1)[C@@H]1C[C@H](C)N(C(=O)c2cccc(Cl)c2)c2ccccc21` (racemic) [Compound A-35, (±)-Cis-N-[1-(3-chloro-benzoyl)-2-methyl-1,2,3,4-tetrahydro-quinolin-4-yl]-N-phenyl-propionamide] stands less than 10 µM; under `CC(=O)N(c1ccccc1)[C@H]1C[C@@H](C)N(C(=O)c2ccc(C(C)(C)C)cc2)c2ccccc21` [Compound A-8, (2R,4S)-cis-N-[1-(4-tert-butyl-benzoyl)-2-methyl-1,2,3,4-tetrahydro-quinolin-4-yl]-N-phenyl-acetamide], less than 60 µM; under `CCC[C@H]1C[C@@H](N(C(=O)CC)c2ccc(Cl)cc2)c2ccccc2N1C(=O)c1ccc(F)cc1` (racemic) [Compound B-103, (±)-Cis-N-(4-chloro-phenyl)-N-[1-(4-fluoro-benzoyl)-2-propyl-1,2,3,4-tetrahydro-quinolin-4-yl]-propionamide], less than 10 µM.
Then `CC(=O)N(c1ccccc1)[C@H]1C[C@@H](C)N(C(=O)c2cccs2)c2ccccc21` [Compound A-11, (2R,4S)-N-[2-methyl-1-(thiophene-2-carbonyl)-1,2,3,4-tetrahydro-quinolin-4-yl]-N-phenyl-acetamide], with less than 10 µM; and `CC(=O)N(c1ccccc1)[C@@H]1C[C@H](C)N(C(=O)c2cccn2C)c2ccccc21` (racemic) [Compound A-130, (±)-Cis-N-[2-methyl-1-(1-methyl-1H-pyrrole-2-carbonyl)-1,2,3,4-tetrahydro-quinolin-4-yl]-N-phenyl-acetamide], with less than 10 µM; and `CCC(=O)N(c1ccc(Cl)cc1)[C@@H]1C[C@H](C)N(C(=O)c2ccc(F)cc2)c2ccc(OCC(=O)O)cc21` (racemic) [Compound B-65, (±)-Cis-[4-[(4-chloro-phenyl)-propionyl-amino]-1-(4-fluoro-benzoyl)-2-methyl-1,2,3,4tetrahydro-quinolin-6-yloxy]-acetic acid], with less than 10 µM.
